Data reported in patent publication US20150352134A1, “COMPOSITION FOR TOPICAL SKIN APPLICATION CONTAINING GINSENOSIDE F2 DERIVED FROM HYDROPONIC GINSENG” (AMOREPACIFIC CORPORATION, priority 2012, published 2015).

Legend:
[1] = system: 3T3-L1 cells; experiment: Lipogenesis inhibition in 3T3-L1 cells (Sudan III dyeing); type: cell-based, mouse; details: 50 µM
Method: The mouse fibroblast cell line, 3T3-L1 cells are immobilized in a 6-well culture plate filled with Dulbecco's modified eagle's medium (DMEM) (GIBCO BRL, Life Technologies, Inc.) containing 10% fetal bovine serum (FBS) at an amount of 1×10^5 cells/well. After 2 days, the used medium is replaced with a new DMEM (containing 10% FBS) medium to culture the cells for 2 days. […] After 5 days, the used DMEM medium is replaced with a normal medium (DMEM containing 10% FBS). The cells are cultured and observed until they are morphologically changed into fat cells. In order to evaluate the ginsenoside F2 in regards to the inhibitory effect on the fat accumulation in the fat cells, the completely differentiated 3T3-L1 fat cells are dyed with Sudan III ([…], Sigma-Aldrich). The fat cells are immobilized with 4% para-formaldehyde (pH 7.2) at the room temperature in a phosphate buffer solution. The fat cells are washed with phosphate-buffered saline (PBS) and then dyed with Sudan III. The picture of the fat cells is taken for visual evaluation. The control uses a medium using neither a test substance nor a comparative substance. The comparative control group is treated with 50 μM caffeine. The fat accumulation inhibitory ability is evaluated based on the degree of dying. The degree of dying is graded +++, ++, +, and - in the decreasing order.

[2] = system: prostaglandin generation in macrophagocytes collected from the abdominal cavity of a mouse; experiment: Prostaglandin generation inhibition in LPS-treated macrophagocytes (ELISA); type: cell-based; details: 100 μl of ginsenoside F2
Method: The inflammatory effect is evaluated in terms of the inhibitory effect on prostaglandin generation. Ginsenoside F2 is used to measure the effect on macrophagocytes. Firstly, macrophagocytes collected from the abdominal cavity of a mouse are treated with aspirin to have the final concentration of 500 µM, causing irreversible inhibition on the activity of cyclooxygenase (COX) remaining in the macrophagocytes. Then, 100 μl of the suspension is put in each well of a 96-well culture plate and cultured in an incubator under the conditions of 5% CO2 and 37° C. for 2 hours to immobilize the macrophagocytes on the surface of the container. Subsequently, the immobilized macrophagocytes are washed with PBS three times and used in the inflammatory improvement test. […] Then, the macrophagocytes are treated with 100 μl of ginsenoside F2, and the isolated prostaglandin is quantitatively analyzed by way of ELISA (Enzyme-Linked ImmunoSorbent Assey).
In this regard, the prostaglandin generation inhibitory activity of the ginsenoside F2 is determined by the reduced amount of prostaglandin generated in the LPS-treated group in comparison with the case of the control in terms of the percentage amount of the prostaglandin decreased by treatment with LPS and the sample, while the difference in the amount of the generated prostaglandin between the LPS-treated group and the control group is set to 100%.

| SMILES | Inhibition rate (%) (degree of dying with Sudan III) [1] | prostaglandin generation (Blank = 100%) [2] |
| --- | --- | --- |
| Cn1c(=O)c2c(ncn2C)n(C)c1=O [Comparative group, caffeine, reference compound] | + |  |
| CC(=O)Oc1ccccc1C(=O)O [Control (aspirin-treated group), aspirin, reference compound] |  | 25.0% |
